Patent US6943149B2, “Benzimidazolone peptidomimetics as thrombin receptor antagonists” (Ortho McNeil Pharmaceutical, Inc., priority 1999, dated 2005)

target: T1, Thrombin receptor (PAR-1) (Homo sapiens, UniProt P25116); test: Thrombin receptor (PAR-1) binding assay; details: CHRF membranes; tritiated 721-40 radioligand; read-out: IC50 (μM) Thr recptr Bdg
T1 construct: CHRF membranes (Jones, Biochim. Biophys. Acta 1992, 1136, 272) are thawed from −70° C; endogenous in cells; host or cells: CHRF cell membranes
T1 sequence (P25116 22-425): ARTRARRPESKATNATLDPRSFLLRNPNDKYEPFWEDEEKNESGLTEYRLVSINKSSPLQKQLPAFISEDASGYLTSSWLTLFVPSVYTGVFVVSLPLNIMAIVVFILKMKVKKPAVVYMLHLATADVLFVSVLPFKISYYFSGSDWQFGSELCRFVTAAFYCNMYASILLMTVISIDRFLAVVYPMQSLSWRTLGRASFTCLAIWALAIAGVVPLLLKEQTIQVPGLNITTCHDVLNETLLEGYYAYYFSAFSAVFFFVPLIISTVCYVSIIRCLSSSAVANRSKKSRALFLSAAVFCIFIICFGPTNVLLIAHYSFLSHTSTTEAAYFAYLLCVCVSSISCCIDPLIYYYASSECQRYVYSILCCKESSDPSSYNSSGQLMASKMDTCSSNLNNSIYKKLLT
Procedure: In Vitro Thrombin Receptor Binding Assay
CHRF membranes (Jones, Biochim. Biophys. Acta 1992, 1136, 272) are thawed from −70° C., centrifuged at maximum speed for 5 min, washed twice with binding buffer (50 mM HEPES containing 5 mM MgCl2 and 0.1% BSA), and re-suspended in binding buffer ([…]). 100 μL of membranes are added to the 24-Wallac plates and delivered to the Tomtech apparatus. In a typical experiment, 6 μL of samples (from a 125 μg/mL intermediary plate, 20% DMSO) and 44 μL buffer are delivered to the plates (final conc. of compounds is 3.7 μg/mL, 0.6% DMSO). Similarly, 6 μL 20% DMSO and 44 μL buffer are delivered to both column 1 (NSB) and column 12 (TB). 10 μL Ser-pFPhe-Har-Leu-Har-Lys-Tyr-NH2, SEQ ID NO 1, (721-40; 500 μM in deionized water) is added to column 1. 50 μL tritiated 721-40 (specific activity 46 Ci/mmol) is added to all the wells. The plates are mixed well for 20 seconds, incubated for 30 min, and then harvested with 10 mM HEPES/138 mM NaCl using the Skatron harvester. The filters (GF/C Brandel FPXLR 296) are presoaked 3 h in 0.5% polyethylenimine in HEPES/0.1M N-acetylglucosamine) are set in saran wrap and dried for 3 min in the microwave, and placed in sample bags (Wallac 1450-432). 4.5 mL scintillation fluid (Wallac, Betaplate Scint 1205-440) is added. The bags are sealed, placed in filter cassettes (Wallac 1450-104), and analyzed on the microbeta counter.

| Structure (SMILES) | IC50 [µM] |
| --- | --- |
| NCC[C@H](NC(=O)[C@H](Cc1ccc(F)c(F)c1)NC(=O)Nc1ccc2c(c1)n(Cc1c(Cl)cccc1Cl)c(=O)n2CCN1CCCC1)C(=O)NCc1ccccc1 [Compound 1] | 1.6 |
| Cc1ccccc1Cn1c(=O)n(CCN2CCCC2)c2cc(NC(=O)N[C@@H](Cc3ccc(F)c(F)c3)C(=O)N[C@@H](CCN)C(=O)NCc3ccccc3)ccc21 [Compound 2] | 3 |
| Cc1ccccc1Cn1c(=O)n(CCN(C)C)c2cc(NC(=O)N[C@@H](Cc3ccc(F)c(F)c3)C(=O)N[C@@H](CCN)C(=O)NCc3ccccc3)ccc21 [Compound 3] | 1.9 |
| Cc1ccccc1Cn1c(=O)n(CCN(C)C)c2ccc(NC(=O)N[C@@H](Cc3ccc(F)c(F)c3)C(=O)N[C@@H](CCN)C(=O)NCc3ccccc3)cc21 [Compound 4] | 0.7 |
| Cc1ccccc1Cn1c(=O)n(CCN2CCCC2)c2ccc(NC(=O)N[C@@H](Cc3ccc(F)c(F)c3)C(=O)N[C@@H](CCN)C(=O)NCc3ccccc3)cc21 [Compound 5] | 0.4 |
| NCC[C@H](NC(=O)[C@H](Cc1ccc(F)c(F)c1)NC(=O)Nc1ccc2c(c1)n(Cc1ccc(F)cc1)c(=O)n2CCN1CCCC1)C(=O)NCc1ccccc1 [Compound 6] | 0.6 |
| NCC[C@H](NC(=O)[C@H](Cc1ccc(F)c(F)c1)NC(=O)Nc1ccc2c(c1)n(CCN1CCCC1)c(=O)n2Cc1c(Cl)cccc1Cl)C(=O)NCc1ccccc1 [Compound 7] | 1.7 |
| NCCNC(=O)[C@H](Cc1ccncc1)NC(=O)[C@H](Cc1ccc(F)c(F)c1)NC(=O)Nc1ccc2c(c1)n(Cc1ccc(F)cc1)c(=O)n2CCN1CCCC1 [Compound 8] | 0.5 |

test system: gel-filtered platelets (thrombin-stimulated aggregation); test: Thrombin-induced gel-filtered platelet aggregation assay; type: cell-based; details: human platelets, read-out: IC50 (μM) Thr GFP Aggr
Procedure: In Vitro Inhibition of Thrombin-Induced Gel-Filtered Platelet Aggregation Assay
The percentage of platelet aggregation is calculated as an increase in light transmission of compound-treated platelet concentrate vs. control-treated platelet concentrate. Human blood is obtained from drug free, normal donors in tubes containing 0.13M sodium citrate. Platelet rich plasma (PRP) is collected by centrifugation of whole blood at 200×g for 10 min at 25° C. The PRP (5 mL) is gel filtered through Sepharose 2B (bed volume 50 mL), and the platelet count is adjusted to 2×10^7 platelets per sample. The following constituents are added to a siliconized cuvette: concentrated platelet filtrate and Tyrode's buffer (0.14M NaCl, 0.0027M KCl, 0.012M NaHCO3, 0.76 mM Na2HPO4, 0.0055M glucose, 2 mg/mL BSA and 5.0 mM HEPES @ pH 7.4) in an amount equal to 350 μL, 50 μL of 20 mM calcium and 50 μL of the test compound. Aggregation is monitored in a BIODATA aggregometer for the 3 min following the addition of agonist (thrombin 50 μL of 1 unit/mL).

| Structure (SMILES) | IC50 [µM] |
| --- | --- |
| NCC[C@H](NC(=O)[C@H](Cc1ccc(F)c(F)c1)NC(=O)Nc1ccc2c(c1)n(Cc1c(Cl)cccc1Cl)c(=O)n2CCN1CCCC1)C(=O)NCc1ccccc1 [Compound 1] | 0.39 |
| Cc1ccccc1Cn1c(=O)n(CCN2CCCC2)c2cc(NC(=O)N[C@@H](Cc3ccc(F)c(F)c3)C(=O)N[C@@H](CCN)C(=O)NCc3ccccc3)ccc21 [Compound 2] | 7 |
| Cc1ccccc1Cn1c(=O)n(CCN(C)C)c2cc(NC(=O)N[C@@H](Cc3ccc(F)c(F)c3)C(=O)N[C@@H](CCN)C(=O)NCc3ccccc3)ccc21 [Compound 3] | 7.7 |
| Cc1ccccc1Cn1c(=O)n(CCN(C)C)c2ccc(NC(=O)N[C@@H](Cc3ccc(F)c(F)c3)C(=O)N[C@@H](CCN)C(=O)NCc3ccccc3)cc21 [Compound 4] | 0.23 |
| Cc1ccccc1Cn1c(=O)n(CCN2CCCC2)c2ccc(NC(=O)N[C@@H](Cc3ccc(F)c(F)c3)C(=O)N[C@@H](CCN)C(=O)NCc3ccccc3)cc21 [Compound 5] | 0.28 |
| NCC[C@H](NC(=O)[C@H](Cc1ccc(F)c(F)c1)NC(=O)Nc1ccc2c(c1)n(Cc1ccc(F)cc1)c(=O)n2CCN1CCCC1)C(=O)NCc1ccccc1 [Compound 6] | 6 |
| NCC[C@H](NC(=O)[C@H](Cc1ccc(F)c(F)c1)NC(=O)Nc1ccc2c(c1)n(CCN1CCCC1)c(=O)n2Cc1c(Cl)cccc1Cl)C(=O)NCc1ccccc1 [Compound 7] | 5.5 |
| NCCNC(=O)[C@H](Cc1ccncc1)NC(=O)[C@H](Cc1ccc(F)c(F)c1)NC(=O)Nc1ccc2c(c1)n(Cc1ccc(F)cc1)c(=O)n2CCN1CCCC1 [Compound 8] | 5.8 |
